Counter-ions that a name gives are not always drawn. Like-named read-outs stand apart in the source and are kept apart here.
Experiments:
[1] = test system: diabetes induced obese (DIO) mouse model; test: Insulin resistance in diabetes induced obese (DIO) mouse model; format: in vivo
Procedure: Insulin Resistance in Diabetes Induced Obese Mouse Model.
The effect of administration of an H4R antagonist, 5-fluoro-4-methyl-2-{5-methyl-2-[4-(1-methyl-piperidin-4-yl)-butoxy]-pyridin-4-yl}-1H-benzoimidazole (U.S. Pat. No. 7,432,378, Example 165), was tested in the treatment of insulin resistance in the diabetes induced obese (DIO) mouse model. […] Our data support the claim that H4R antagonists have beneficial properties towards the treatment of type 2 diabetes and related metabolic diseases.

human H4 receptor [2] = biological target: T1, human H4 receptor (Homo sapiens (Human), UniProt Q9H3N8); test: cell-based; format: cell-based
Procedure: SK-N-MC cell lines were created that express a reporter gene construct and the human H4 receptor full-coding region (NCBI accession No. AF312230). The reporter gene was β-galactosidase under the control of cyclic AMP-responsive elements. Cells were plated in 96-well plates the night before the assay. Histamine was used as the agonist for all assay. For the H4 receptor, the inhibition of forskolin-stimulated cAMP production was measured. For determination of antagonist activity, compounds were added 10 min prior to the addition of agonist, which was added directly to the cell medium. Forskolin (5 μM final concentration) was added 10 min after the addition of histamine. Cells were returned to the incubator for 6 h at 37° C. The medium was then aspirated, and the cells were washed with […] of phosphate-buffered saline (PBS). Cells were lysed with 25 μL of 0.1X assay buffer (10 mM sodium phosphate, pH 8, 0.2 mM MgSO4, and 0.01 mM MnCl2) and incubated at rt for 10 min. Cells were then incubated for 10 min with 100 μL of 1X assay buffer containing 0.5% (v/v) Triton X-100 and 40 mM β-mercaptoethanol. Color was developed using 25 μL of 1 mg/mL substrate solution (chlorophenol red β-D-galactopyranoside; Roche Applied Science, Indianapolis, Ind.). Color was quantitated on a microplate reader by measuring the absorbance at 570 nm. The data from each concentration-response curve were fitted to a sigmoidal curve to obtain the maximum response, Hill coefficient, and EC50 using Prism (GraphPad Software, San Diego, Calif.). Dose ratios were calculated from individual concentration-response curves of agonists at three to five antagonist concentrations. Apparent pA2 values were calculated using a Schild plot (ND=not determined).

human H4 receptor [3] = biological target: T1, human H4 receptor; test: Binding assay on recombinant human histamine H4 receptor ([3H]histamine competition, SK-N-MC cell membranes); conditions: [3H]histamine 10 nM, average of results
Procedure, shortened: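 Membranes from SK-N-MC cells stably or transiently transfected with human H4 receptor, prepared by homogenization and 30,000 g centrifugation in Tris/EDTA. Bound [3H]histamine separated by rapid filtration on PEI-treated GF/C filters, washed with ice-cold Tris/EDTA, counted by scintillation. '>' values denote highest concentration tested.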

[4] = test system: mouse models of asthma, arthritis and dermatitis; conditions: in vivo; cited from earlier work
H4 receptor (H4R) = H4 receptor (H4R) (Homo sapiens (Human), UniProt Q9H3N8); conditions: in vitro; cited from earlier work
[5] = test system: lipopolysaccharide (LPS)-induced tumor necrosis factor alpha (TNF-α) production; conditions: in vivo; cited from earlier work
mast cells [6] = conditions: cited from earlier work
mast cells [7] = conditions: cited from earlier work; remark: listed apart in the source
eosinophils = conditions: cited from earlier work
[8] = apparent pA2 from Schild plot, antagonism of histamine inhibition of forskolin-stimulated cAMP, read-out: pA2 (converted)
[9] = membranes harvested with 96 well Brandel system, read-out: Brandel Ki
[10] = apparent pA2 from Schild plot, antagonism of histamine inhibition of forskolin-stimulated cAMP
[11] = membranes harvested with cell harvester, read-out: Cell Harvester Ki

T1 sequence (Q9H3N8 whole entry): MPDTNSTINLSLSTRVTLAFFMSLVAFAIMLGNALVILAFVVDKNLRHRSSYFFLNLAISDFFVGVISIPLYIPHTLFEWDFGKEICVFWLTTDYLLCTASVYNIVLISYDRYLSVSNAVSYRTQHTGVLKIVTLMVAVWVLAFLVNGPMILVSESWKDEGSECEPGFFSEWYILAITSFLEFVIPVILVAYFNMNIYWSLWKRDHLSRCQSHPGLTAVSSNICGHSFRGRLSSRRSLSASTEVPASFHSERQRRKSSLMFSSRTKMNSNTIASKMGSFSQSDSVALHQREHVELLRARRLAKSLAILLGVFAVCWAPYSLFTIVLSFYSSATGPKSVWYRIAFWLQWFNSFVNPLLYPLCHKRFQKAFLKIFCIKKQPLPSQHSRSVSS
Chain of H4 receptor (H4R) (Q9H3N8 whole entry, species assumed): as the sequence (Q9H3N8 whole entry) above

Row | Compound | Kb (human H4 receptor [2]; [8]) | Ki (human H4 receptor [3]; [11]) | other results
1 | Cc1cnc(OCCCCC2CCN(C)CC2)cc1-c1nc2c(C)c(F)ccc2[nH]1 [5-Fluoro-4-methyl-2-{5-methyl-2-[4-(1-methyl-piperidin-4-yl)-butoxy]-pyridin-4-yl}-1H-benzoimidazole] | – | – | MCP-1 and TNF-α expression [1]: reduced; fat content in liver [1]: significantly reduced; fed and fasted glucose levels ([1]; 20 mg/kg PO): significantly reduced; insulin sensitivity as determined by an insulin tolerance test ([1]; 20 mg/kg PO): improved
2 | CC(C)CNc1cc(N2CC[C@@H](N)C2)ccn1 [Example 20, 4-[(3R)-3-Aminopyrrolidin-1-yl]-N-(2-methylpropyl)pyridin-2-amine dihydrochloride] | 20 nM | – | Ki (human H4 receptor [3]; [9]): 3.5 nM
3 | CN[C@@H]1CCN(c2cnnc(NCC(C)C)c2)C1 [Example 95, 5-[(3R)-3-(Methylamino)pyrrolidin-1-yl]-N-(2-methylpropyl)pyridazin-3-amine] | – | 15 nM | pA2 (human H4 receptor [2]; [10]): 7.8; Ki (human H4 receptor [3]; [9]): 15 nM
4 | CN[C@H]1CCN(c2ccnc(NC3CC4CCC3C4)n2)C1 (stereo partly drawn) [Example 162, N-Bicyclo[2.2.1]hept-2-yl-4-[(3S)-3-(methylamino)pyrrolidin-1-yl]pyrimidin-2-amine] | – | 7.14 nM | pA2 (human H4 receptor [2]; [10]): 8.1
5 | CN[C@@H]1CCN(c2ccnc(NC[C@H]3CC[C@H]4C[C@@H]3C4(C)C)n2)C1 [Example 193, N-{[(1S,2S,5S)-6,6-Dimethylbicyclo[3.1.1]hept-2-yl]methyl}-4-[(3R)-3-(methylamino)pyrrolidin-1-yl]pyrimidin-2-amine] | 12.6 nM | 16 nM | –
6 | CN[C@@H]1CCN(c2ccnc(NC[C@H]3CC[C@H]4C[C@@H]3C4(C)C)c2)C1 [Example 217, N-{[(1S,2S,5S)-6,6-Dimethylbicyclo[3.1.1]hept-2-yl]methyl}-4-[(3R)-3-(methylamino)pyrrolidin-1-yl]pyridin-2-amine] | 31.6 nM | 24.3 nM | –
7 | CN[C@@H]1CCN(c2ccnc(NCC34CC5CC(CC(C5)C3)C4)c2)C1 [Example 220, Adamantan-1-ylmethyl-[4-(3R)-(3-methylamino-pyrrolidin-1-yl)-pyridin-2-yl]-amine] | 25.1 nM | 6.48 nM | –
8 | CN[C@H]1CCN(c2ccnc(NC3CC4CCC3C4)c2)C1 (stereo partly drawn) [Example 231, N-Bicyclo[2.2.1]hept-2-yl-4-[(3S)-3-(methylamino)pyrrolidin-1-yl]pyridin-2-amine] | – | 8.41 nM | pA2 (human H4 receptor [2]; [10]): 9
9 | CC(C)CNc1cc(N2C[C@H]3CCN[C@H]3C2)ccn1 [Example 257, 4-[(3aR,6aR)-Hexahydropyrrolo[3,4-b]pyrrol-5(1H)-yl]-N-(2-methylpropyl)pyridin-2-amine] | – | 64.5 nM | Kb (human H4 receptor [2]): 50.1 nM
10 | c1nnc(NC2CC3CCC2C3)cc1N1CCCNCC1 (centres unmarked) [Example 308, N-Bicyclo[2.2.1]hept-2-yl-5-(1,4-diazepan-1-yl)pyridazin-3-amine] | 79.4 nM | 18.4 nM | –
11 | CNC1CN(c2cnnc(NC3CC4CCC3C4)c2)C1 (centres unmarked) [Example 331, N-Bicyclo[2.2.1]hept-2-yl-5-[3-(methylamino)azetidin-1-yl]pyridazin-3-amine] | 39.8 nM | 96.7 nM | –
12 | CN[C@H]1CCN(c2cnnc(NC3CCCC3)c2)C1 [Example 380, N-Cyclopentyl-5-[(3S)-3-(methylamino)pyrrolidin-1-yl]pyridazin-3-amine] | 63.1 nM | 54.3 nM | –
13 | CN[C@@H]1CCN(c2cnnc(NCC(C)(C)C)c2)C1 [Example 392, N-(2,2-Dimethylpropyl)-5-[(3R)-3-(methylamino)pyrrolidin-1-yl]pyridazin-3-amine] | 7.94 nM | 18.3 nM | –
14 | Cc1cc(C)c2nc(-c3cnc(NCCCC4CCN(C)CC4)nc3C)[nH]c2c1 [[5-(4,6-dimethyl-1H-benzoimidazol-2-yl)-4-methyl-pyrimidin-2-yl]-[3-(1-methyl-piperidin-4-yl)-propyl]-amine] | – | – | inflammation in mouse models of asthma, arthritis and dermatitis [4]: reduced inflammation; selectivity over other histamine receptors (H4 receptor (H4R)): greater than 25 fold; LPS-induced TNF-α production and other cytokines [5]: inhibited; IL-6 production in mast cells (mast cells [6]): inhibited; chemotaxis of mast cells (mast cells [7]): inhibited; histamine-induced shape change of eosinophils (eosinophils): inhibited

Source: US9732087B2, “Diamino-pyridine, pyrimidine, and pyridazine modulators of the histamine H4 receptor” (JANSSEN PHARMACEUTICA NV, priority 2008, dated 2017)
